What was measured:
[1] = molecular target: Serine/threonine-protein kinase/endoribonuclease IRE1 (Homo sapiens) (UniProt O75460); test: Selectivity interaction (Kinase panel (KiNativ target engagement assay in Jurkat cells)) EUB0001635a ERN1; type: cell-based; conditions: Selectivity number of off-targets 0.0, Selectivity number of targets 233.0, Source Knowledge https://www.sciencedirect.com/science/article/pii/S2451945619300674?via%3Dihub, at 1 µM
[2] = molecular target: Bromodomain-containing protein 3 (Homo sapiens) (UniProt Q15059); test: Selectivity interaction (Human bromodomain panel (DSF assay)) EUB0000233b BRD3
[3] = molecular target: Transcription initiation factor TFIID subunit 1 (Homo sapiens) (UniProt P21675); test: Selectivity interaction (Human bromodomain panel (DSF assay)) EUB0000233b TAF1
[4] = tested on: Epidermal growth factor receptor (Homo sapiens), P00533 [UNDEFINED MUTATION]; test: Selectivity interaction (KinomeScan (DiscoverX)) EUB0000229b EGFR; conditions: at 1 µM
[5] = molecular target: Leukocyte tyrosine kinase receptor (Homo sapiens, UniProt P29376); test: Selectivity interaction (KinomeScan (DiscoverX)) EUB0000229b LTK; conditions: at 10 µM
[6] = molecular target: Myosin light chain kinase, smooth muscle (Homo sapiens, UniProt Q15746); test: Selectivity interaction (KinomeScan (DiscoverX)) EUB0000695a MYLK; conditions: at 100 nM
[7] = molecular target: Serine/threonine-protein kinase 38-like (Homo sapiens) (UniProt Q9Y2H1); test: Selectivity interaction (KinomeScan (DiscoverX)) EUB0000695a STK38L; conditions: at 100 nM
[8] = molecular target: T1, Rhodopsin kinase GRK1 (Homo sapiens) (UniProt Q15835); test: Selectivity interaction (LanthaScreen Eu Kinase Binding Assay) EUB0001632a GRK1; conditions: at 10 µM
T1 sequence (whole entry): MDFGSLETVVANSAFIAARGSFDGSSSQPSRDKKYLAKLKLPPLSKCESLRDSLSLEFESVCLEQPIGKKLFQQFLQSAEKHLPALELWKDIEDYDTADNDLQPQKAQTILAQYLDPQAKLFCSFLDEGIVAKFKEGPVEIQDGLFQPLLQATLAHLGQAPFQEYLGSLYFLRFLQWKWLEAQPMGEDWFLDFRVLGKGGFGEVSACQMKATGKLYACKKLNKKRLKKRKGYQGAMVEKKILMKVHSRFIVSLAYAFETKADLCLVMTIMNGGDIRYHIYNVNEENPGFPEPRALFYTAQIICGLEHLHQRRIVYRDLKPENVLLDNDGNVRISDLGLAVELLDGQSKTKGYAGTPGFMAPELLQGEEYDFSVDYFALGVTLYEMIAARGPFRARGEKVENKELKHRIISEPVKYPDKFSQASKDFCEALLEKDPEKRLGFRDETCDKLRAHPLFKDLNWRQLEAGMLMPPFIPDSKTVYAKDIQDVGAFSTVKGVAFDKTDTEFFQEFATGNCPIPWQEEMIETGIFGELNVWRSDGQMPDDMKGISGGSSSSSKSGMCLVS

[9] = molecular target: Serine/threonine-protein kinase Nek6 (Homo sapiens) (UniProt Q9HC98); test: Selectivity interaction (Kinase panel (Z-LYTE Assay)) EUB0001632a NEK6; conditions: at 10 µM
[10] = molecular target: Tyrosine-protein kinase BTK (Homo sapiens, UniProt Q06187); test: Selectivity interaction (Kinase screening (Nanosyn)) EUB0000604a BTK
Aurora kinase B = Aurora kinase B (Homo sapiens, UniProt Q96GD4); test: Selectivity interaction (ProQinase) EUB0000171b AURKB
[11] = molecular target: T2, Serine/threonine-protein kinase ULK1 (Homo sapiens) (UniProt O75385); test: Selectivity interaction (KinomeScan (DiscoverX)) EUB0000607a ULK1; conditions: at 10 µM
T2 sequence (whole entry): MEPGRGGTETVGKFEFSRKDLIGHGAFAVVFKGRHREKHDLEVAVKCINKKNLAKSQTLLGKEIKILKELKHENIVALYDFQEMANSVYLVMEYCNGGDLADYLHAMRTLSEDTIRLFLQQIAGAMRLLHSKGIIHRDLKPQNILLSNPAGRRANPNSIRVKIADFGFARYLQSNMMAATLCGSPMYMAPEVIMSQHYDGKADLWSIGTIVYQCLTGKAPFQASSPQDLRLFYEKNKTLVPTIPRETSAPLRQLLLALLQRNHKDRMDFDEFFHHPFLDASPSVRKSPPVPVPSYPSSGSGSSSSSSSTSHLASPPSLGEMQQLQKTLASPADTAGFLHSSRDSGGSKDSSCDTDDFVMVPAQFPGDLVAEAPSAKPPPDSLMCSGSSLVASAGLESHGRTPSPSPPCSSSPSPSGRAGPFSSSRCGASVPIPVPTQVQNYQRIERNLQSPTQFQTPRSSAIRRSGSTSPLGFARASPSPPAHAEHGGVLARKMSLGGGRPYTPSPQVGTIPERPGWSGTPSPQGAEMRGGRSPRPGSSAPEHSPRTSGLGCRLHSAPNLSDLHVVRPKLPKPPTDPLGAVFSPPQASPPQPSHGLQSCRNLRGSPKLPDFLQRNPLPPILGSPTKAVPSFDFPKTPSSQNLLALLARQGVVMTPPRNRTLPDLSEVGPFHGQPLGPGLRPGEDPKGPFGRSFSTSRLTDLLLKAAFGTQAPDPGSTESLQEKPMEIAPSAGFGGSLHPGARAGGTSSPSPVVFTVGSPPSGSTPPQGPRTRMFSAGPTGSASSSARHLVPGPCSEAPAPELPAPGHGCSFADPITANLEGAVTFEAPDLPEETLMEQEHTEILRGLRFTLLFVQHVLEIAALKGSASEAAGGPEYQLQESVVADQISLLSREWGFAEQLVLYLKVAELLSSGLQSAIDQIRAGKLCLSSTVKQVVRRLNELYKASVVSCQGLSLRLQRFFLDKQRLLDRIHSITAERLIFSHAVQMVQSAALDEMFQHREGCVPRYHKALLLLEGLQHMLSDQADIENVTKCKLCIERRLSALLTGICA

[12] = molecular target: Death-associated protein kinase 1 (Homo sapiens, UniProt P53355); test: Selectivity interaction (Kinase panel (DSF assay)) EUB0001558a DAPK1
[13] = molecular target: Tyrosine-protein kinase ABL1 (Homo sapiens, UniProt P00519); test: Selectivity interaction (ActivX KiNativ screen (kinase selectivity in THP-1 cell lysates)) EUB0000639a ABL1; type: subcellular; conditions: lysate, at 0.01 µM
[14] = molecular target: Serine/threonine-protein kinase NIM1 (Homo sapiens, UniProt Q8IY84); test: Selectivity interaction (KinomeScan (DiscoverX)) EUB0000655a NIM1K; conditions: at 10 µM
[15] = molecular target: Mitogen-activated protein kinase 6 (Homo sapiens) (UniProt Q16659); conditions: at 10 µM

Sequence of Aurora kinase B (Q96GD4 whole entry): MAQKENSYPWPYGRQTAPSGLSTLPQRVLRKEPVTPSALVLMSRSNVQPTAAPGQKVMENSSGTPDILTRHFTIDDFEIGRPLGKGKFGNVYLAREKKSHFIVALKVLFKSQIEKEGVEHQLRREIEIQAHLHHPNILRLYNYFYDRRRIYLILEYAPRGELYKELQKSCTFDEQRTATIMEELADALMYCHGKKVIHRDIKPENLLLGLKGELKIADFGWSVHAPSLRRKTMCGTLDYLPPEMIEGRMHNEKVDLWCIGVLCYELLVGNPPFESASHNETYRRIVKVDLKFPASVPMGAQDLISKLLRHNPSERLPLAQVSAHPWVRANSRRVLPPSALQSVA
Sequence of Serine/threonine-protein kinase NIM1 (Q8IY84 whole entry): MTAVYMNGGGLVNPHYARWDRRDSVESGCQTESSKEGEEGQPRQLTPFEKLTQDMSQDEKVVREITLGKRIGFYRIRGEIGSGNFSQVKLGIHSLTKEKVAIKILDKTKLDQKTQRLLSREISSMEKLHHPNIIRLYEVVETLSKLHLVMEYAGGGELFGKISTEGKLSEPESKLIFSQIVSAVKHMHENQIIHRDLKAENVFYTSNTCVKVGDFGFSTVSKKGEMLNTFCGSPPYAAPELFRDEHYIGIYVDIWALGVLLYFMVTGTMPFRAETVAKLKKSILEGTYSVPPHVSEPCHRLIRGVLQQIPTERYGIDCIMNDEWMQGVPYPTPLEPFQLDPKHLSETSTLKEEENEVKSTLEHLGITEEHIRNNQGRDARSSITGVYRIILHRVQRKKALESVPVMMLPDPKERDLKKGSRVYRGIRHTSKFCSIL
Sequence of Leukocyte tyrosine kinase receptor (P29376 whole entry): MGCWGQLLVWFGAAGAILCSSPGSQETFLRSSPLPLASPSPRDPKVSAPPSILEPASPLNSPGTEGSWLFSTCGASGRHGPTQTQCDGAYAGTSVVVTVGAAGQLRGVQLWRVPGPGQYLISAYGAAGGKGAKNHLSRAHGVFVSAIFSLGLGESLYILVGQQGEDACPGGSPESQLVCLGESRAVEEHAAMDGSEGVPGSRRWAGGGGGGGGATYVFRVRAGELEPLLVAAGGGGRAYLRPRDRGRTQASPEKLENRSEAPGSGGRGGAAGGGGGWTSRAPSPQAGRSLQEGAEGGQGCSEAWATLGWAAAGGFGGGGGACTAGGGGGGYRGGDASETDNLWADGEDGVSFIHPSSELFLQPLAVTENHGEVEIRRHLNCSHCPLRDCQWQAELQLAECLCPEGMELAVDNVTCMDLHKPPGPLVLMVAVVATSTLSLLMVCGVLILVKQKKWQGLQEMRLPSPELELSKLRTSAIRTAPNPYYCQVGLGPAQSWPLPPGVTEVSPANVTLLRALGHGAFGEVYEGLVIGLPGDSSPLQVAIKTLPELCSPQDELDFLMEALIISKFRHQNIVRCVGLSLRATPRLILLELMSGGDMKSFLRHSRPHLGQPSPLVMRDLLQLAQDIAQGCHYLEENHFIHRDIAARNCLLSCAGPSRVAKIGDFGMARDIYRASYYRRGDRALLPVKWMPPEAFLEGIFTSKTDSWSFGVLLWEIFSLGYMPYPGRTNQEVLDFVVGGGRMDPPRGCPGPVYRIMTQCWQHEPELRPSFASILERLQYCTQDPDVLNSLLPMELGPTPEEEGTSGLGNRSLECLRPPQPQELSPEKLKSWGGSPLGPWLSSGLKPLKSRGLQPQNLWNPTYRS
Sequence of Tyrosine-protein kinase BTK (Q06187 whole entry): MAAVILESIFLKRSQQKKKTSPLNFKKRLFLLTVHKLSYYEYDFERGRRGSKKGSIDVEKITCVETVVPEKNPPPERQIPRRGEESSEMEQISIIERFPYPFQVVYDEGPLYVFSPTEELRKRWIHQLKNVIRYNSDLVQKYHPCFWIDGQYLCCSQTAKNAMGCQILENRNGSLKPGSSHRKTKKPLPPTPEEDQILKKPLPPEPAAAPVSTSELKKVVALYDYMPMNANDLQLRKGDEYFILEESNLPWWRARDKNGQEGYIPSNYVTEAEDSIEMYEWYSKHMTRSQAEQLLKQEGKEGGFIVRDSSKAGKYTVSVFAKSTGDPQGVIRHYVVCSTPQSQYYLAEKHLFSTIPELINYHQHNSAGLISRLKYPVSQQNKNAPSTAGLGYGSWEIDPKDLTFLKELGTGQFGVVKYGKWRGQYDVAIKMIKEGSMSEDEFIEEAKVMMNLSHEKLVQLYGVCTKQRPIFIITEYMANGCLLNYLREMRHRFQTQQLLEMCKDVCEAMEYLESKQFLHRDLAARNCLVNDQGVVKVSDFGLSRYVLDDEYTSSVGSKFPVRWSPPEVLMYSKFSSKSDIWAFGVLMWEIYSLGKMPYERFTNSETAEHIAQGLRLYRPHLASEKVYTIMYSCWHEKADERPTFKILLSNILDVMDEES
Sequence of Serine/threonine-protein kinase 38-like (Homo sapiens) (Q9Y2H1 2-464 limits assumed): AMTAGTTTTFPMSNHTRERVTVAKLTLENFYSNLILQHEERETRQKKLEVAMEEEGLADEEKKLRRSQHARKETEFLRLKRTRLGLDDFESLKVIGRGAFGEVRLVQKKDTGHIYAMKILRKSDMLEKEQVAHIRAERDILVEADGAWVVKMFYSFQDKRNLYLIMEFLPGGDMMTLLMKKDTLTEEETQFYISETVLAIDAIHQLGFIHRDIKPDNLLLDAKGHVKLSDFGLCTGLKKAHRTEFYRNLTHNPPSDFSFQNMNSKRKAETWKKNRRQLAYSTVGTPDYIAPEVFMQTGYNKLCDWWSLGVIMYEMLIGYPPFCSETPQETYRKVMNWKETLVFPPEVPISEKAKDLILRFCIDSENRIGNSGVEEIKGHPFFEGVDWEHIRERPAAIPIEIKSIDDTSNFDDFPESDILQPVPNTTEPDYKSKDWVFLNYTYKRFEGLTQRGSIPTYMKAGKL
Sequence of Epidermal growth factor receptor (Homo sapiens), P00533 [UNDEFINED MUTATION] (P00533 whole entry, looked up, change not shown): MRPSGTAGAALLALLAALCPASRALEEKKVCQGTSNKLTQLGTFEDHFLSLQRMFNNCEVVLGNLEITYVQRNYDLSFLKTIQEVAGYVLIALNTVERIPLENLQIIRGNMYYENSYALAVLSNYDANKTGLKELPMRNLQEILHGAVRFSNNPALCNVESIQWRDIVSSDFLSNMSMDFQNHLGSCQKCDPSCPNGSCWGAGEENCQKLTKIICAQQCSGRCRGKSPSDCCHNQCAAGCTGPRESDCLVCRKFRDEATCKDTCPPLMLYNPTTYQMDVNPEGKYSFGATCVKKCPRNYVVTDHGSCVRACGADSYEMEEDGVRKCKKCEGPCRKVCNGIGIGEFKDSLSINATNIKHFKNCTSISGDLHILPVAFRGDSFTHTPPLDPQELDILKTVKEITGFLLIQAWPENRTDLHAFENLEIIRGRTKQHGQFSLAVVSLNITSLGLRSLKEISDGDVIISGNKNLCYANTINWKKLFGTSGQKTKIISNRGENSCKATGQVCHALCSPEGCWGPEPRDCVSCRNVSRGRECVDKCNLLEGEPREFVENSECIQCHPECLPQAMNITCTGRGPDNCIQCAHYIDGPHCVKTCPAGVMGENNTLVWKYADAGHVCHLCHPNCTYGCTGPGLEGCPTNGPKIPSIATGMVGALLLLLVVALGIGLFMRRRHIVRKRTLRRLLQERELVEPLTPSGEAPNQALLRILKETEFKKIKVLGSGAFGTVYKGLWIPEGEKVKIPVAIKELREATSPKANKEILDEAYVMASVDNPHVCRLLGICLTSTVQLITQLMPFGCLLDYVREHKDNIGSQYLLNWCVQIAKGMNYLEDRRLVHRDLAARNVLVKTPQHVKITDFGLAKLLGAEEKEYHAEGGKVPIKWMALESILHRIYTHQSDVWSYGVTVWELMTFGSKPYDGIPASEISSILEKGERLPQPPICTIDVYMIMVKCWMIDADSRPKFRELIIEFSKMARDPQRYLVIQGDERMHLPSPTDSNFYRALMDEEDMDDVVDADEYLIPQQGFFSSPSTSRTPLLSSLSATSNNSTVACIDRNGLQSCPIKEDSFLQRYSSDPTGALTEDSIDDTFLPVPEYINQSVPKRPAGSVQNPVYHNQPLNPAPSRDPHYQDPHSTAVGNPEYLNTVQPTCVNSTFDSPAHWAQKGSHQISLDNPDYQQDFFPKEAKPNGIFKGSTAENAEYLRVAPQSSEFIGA
Sequence of Serine/threonine-protein kinase/endoribonuclease IRE1 (Homo sapiens) (O75460 19-977 limits assumed): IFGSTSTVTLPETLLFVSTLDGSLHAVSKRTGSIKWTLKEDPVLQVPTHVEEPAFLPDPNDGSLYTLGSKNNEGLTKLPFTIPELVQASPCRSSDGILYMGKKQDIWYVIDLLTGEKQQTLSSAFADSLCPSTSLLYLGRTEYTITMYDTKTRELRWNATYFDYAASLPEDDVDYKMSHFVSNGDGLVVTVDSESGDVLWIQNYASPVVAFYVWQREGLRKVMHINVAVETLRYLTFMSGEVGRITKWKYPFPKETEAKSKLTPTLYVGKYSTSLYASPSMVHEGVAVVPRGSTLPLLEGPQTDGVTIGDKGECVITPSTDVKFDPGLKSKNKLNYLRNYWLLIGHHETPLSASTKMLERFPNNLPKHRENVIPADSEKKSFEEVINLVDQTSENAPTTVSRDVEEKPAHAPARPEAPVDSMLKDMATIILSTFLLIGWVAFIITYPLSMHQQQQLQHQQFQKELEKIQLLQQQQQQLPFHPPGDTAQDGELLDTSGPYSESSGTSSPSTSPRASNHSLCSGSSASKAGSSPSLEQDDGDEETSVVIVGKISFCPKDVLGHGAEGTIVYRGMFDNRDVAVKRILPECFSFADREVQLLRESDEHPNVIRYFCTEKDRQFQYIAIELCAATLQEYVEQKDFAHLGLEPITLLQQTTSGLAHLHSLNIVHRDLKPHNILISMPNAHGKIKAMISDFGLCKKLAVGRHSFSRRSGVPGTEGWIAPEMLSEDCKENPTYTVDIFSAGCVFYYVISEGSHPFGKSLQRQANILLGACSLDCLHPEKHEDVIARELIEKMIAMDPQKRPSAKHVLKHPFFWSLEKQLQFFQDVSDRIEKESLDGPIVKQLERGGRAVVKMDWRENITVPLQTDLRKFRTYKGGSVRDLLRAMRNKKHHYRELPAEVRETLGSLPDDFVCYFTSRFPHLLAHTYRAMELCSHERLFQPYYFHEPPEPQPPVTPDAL

Q: How did the % of engagement [1] turn out when `C=CC(=O)Nc1ccc(C(=O)Nc2[nH]nc3c2CN(C(=O)N[C@H](CN(C)C)c2ccccc2)C3(C)C)cc1` was run?
A: Its % of engagement is -0.9%.

Q: With `CN(C)CCCOc1ccc(-c2cc(NCCCn3cccn3)nc(S(C)(=O)=O)n2)cc1` as the compound, how does the dTM [2] read?
A: Its dTM is < 2 K.

Q: And the dTM [3]?
A: The dTM was < 2 K.

Q: What does the source list for `COc1cc(N(C)c2ccnc3ccc(C(F)(F)F)cc23)cc(OC)c1OC`?
A: % binding [4]: 97%; % binding [5]: 96%

Q: For `Cc1cc(F)c(C(=O)Nc2cccc(-c3nncn3C(C)C)n2)cc1-n1cnc(C2CC2)c1`, which % of control [6] is on record?
A: The % of control was 100%.

Q: And the % of control [7]?
A: The % of control was 100%.

Q: What does the source list for `Cn1cc(-n2cnc3c(NCc4nc5cc(Cl)c(Cl)cc5[nH]4)nc(N4CCOCC4)nc32)cn1`?
A: % of inhibition [8]: -16.5%; % of control [9]: 3.78%

Q: With `Cc1cnc(Nc2ccc(F)cc2Cl)nc1-c1c[nH]c(C(=O)N[C@H](CO)c2cccc(Cl)c2)c1` as the compound, how does the % of inhibition [10] read?
A: Its % of inhibition is 5%.

Q: `C=CC(=O)Nc1cccc(C(=O)Nc2ccc(Nc3cc(-c4[nH]c(SC)nc4C)ccn3)cc2)c1` was tested. Which % of control (Aurora kinase B; at 1 µM) did it give?
A: Its % of control is 73%.

Q: What about the % of control (Aurora kinase B; at 5 µM) of the same compound?
A: Its % of control is 40%.

Q: For `CNC(=O)Nc1ccc(-c2nc(N3CC4CCC(C3)O4)c3cnn(C4CCC5(CC4)OCCO5)c3n2)cc1`, which % of control [11] is on record?
A: The % of control was 100%.

Q: Which dTM [12] does the source give for `CC(C)(O)[C@H](F)CN1Cc2cc(NC(=O)c3cnn4cccnc34)c(N3CCOCC3)cc2C1=O` here?
A: Its dTM is 0.1 K.

Q: Which % of inhibition [13] does the source give for `CC[C@@H]1[C@H](F)C(=O)N[C@@H]1COc1nccc2cc(C(N)=O)c(OC)cc12` [ZIMLOVISERTIB] here?
A: Its % of inhibition is 52%.

Q: With `CN(C)CCOc1ccc(-c2nc(-c3ccncc3)c(-c3ccc4c(c3)CC/C4=N\O)[nH]2)cc1` as the compound, how does the % of control [14] read?
A: Its % of control is 91%.

Q: How did the % of control [15] turn out when `CCN(CC)CCCCNc1ncc2cc(-c3cc(OC)cc(OC)c3)c(NC(=O)NC(C)(C)C)nc2n1` was run?
A: The % of control was 100%.

From ChEMBL document CHEMBL5465560, “Selectivity Literature for EUbOPEN Chemogenomic Library” (2024)
